The results in this text go back to publication PMC6130598, “Isolation, characterization, and in silico, in vitro and in vivo antiulcer studies of isoimperatorin crystallized from Ostericum koreanum” (Pharmaceutical Biology, 2016).

The assay concerns the target jack bean urease (Canavalia ensiformis, UniProt P07374). The experiment in a line: colorimetric urease inhibition assay (phenol/hypochlorite ammonia detection, […] nm). In kind it is biochemical.

One may read the IC50 as the point on the concentration scale where inhibition reaches its midpoint.

Sequence of jack bean urease (P07374 whole entry, looked up): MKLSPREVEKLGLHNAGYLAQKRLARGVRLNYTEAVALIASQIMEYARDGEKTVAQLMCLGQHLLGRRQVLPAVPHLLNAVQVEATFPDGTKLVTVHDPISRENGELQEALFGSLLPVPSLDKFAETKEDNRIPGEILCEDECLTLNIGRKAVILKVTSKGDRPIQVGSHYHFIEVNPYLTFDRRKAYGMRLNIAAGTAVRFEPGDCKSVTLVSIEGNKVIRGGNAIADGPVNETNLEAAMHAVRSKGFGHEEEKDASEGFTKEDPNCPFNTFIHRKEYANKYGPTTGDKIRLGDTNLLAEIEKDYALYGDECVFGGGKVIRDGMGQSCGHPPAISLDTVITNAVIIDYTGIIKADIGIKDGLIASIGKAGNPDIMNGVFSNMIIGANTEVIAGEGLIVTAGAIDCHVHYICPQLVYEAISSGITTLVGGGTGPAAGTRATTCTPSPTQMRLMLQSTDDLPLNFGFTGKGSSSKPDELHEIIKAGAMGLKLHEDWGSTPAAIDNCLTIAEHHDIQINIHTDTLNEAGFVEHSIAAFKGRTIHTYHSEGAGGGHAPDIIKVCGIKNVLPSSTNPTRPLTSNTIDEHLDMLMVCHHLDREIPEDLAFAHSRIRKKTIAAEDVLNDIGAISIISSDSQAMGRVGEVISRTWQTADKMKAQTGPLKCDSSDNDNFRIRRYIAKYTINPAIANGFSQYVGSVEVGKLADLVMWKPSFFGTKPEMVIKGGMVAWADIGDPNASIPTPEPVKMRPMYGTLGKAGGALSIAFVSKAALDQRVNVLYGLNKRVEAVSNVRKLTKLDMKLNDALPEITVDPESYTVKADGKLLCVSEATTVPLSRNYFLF

Turning to `CC(C)=CCOc1c2ccoc2cc2oc(=O)ccc12` [isoimperatorin], the IC50 came to 36.4 µM. In other words, the double-digit micromolar range. `NC(N)=S` [thiourea]: the IC50 stood at 33.6 µM.
